Assay results: ChEMBL document CHEMBL4020831, “Discovery of GDC-0853: A Potent, Selective, and Noncovalent Bruton's Tyrosine Kinase Inhibitor in Early Clinical Development” (J Med Chem, 2018)
Activity calls are given as the source filed them. No cut-off for these calls is given here.

Columns and labels:
Hepatocyte = assay: Cytotoxicity against human primary hepatocytes assessed as reduction in cell viability; format: cell-based
[1] = Permeability across apical to basolateral in MDCK1 cells; format: ADME, cell-based, Canis lupus familiaris; conditions: dog, MDCK; read-out: permeability
Cav1.2 = Cav1.2 (Homo sapiens, UniProt Q13936); assay: Inhibition of human Cav1.2 expressed in CHO cells at 10 uM incubated for 3 to 5 mins by Qpatch clamp assay; format: cell-based; conditions: CHO cells expressing human Cav1.2
Salmonella typhimurium [2] = assay: Genotoxicity in Salmonella typhimurium TA98 after 48 to 72 hrs in presence of liver S9 fraction by Ames test; format: toxicity; conditions: salmonella enterica subsp. enterica serovar typhimurium
Salmonella typhimurium [3] = assay: Genotoxicity in Salmonella typhimurium TA98 after 48 to 72 hrs in absence of liver S9 fraction by Ames test; format: toxicity; conditions: salmonella enterica subsp. enterica serovar typhimurium
PBL = assay: Genotoxicity in human PBL assessed as induction of micronuclei at 500 ug/ml in presence of rat liver S9 fraction by cytochalasin B-block method; format: toxicity, cell-based
Cytochrome P450 1A2 = Cytochrome P450 1A2 (Homo sapiens, UniProt P05177); assay: Inhibition of CYP1A2 (unknown origin); format: ADME
Chain of Cytochrome P450 1A2 (P05177 whole entry): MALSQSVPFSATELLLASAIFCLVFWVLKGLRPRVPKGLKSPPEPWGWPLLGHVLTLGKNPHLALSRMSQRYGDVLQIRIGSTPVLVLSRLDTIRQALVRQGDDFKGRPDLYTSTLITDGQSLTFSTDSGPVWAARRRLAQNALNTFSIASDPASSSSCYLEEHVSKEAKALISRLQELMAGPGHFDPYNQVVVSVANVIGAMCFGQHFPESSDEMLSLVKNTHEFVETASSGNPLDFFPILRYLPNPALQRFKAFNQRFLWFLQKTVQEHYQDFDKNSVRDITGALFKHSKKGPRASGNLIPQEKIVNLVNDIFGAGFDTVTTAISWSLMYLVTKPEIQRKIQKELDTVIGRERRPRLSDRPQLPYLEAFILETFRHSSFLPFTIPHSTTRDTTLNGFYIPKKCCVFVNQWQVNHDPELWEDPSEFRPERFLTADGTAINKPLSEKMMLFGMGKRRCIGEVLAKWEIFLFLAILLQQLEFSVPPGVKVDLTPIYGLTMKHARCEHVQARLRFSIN

Cytochrome P450 2C9 = Cytochrome P450 2C9 (Homo sapiens, UniProt P11712); assay: Inhibition of CYP2C9 (unknown origin); format: ADME
Chain of Cytochrome P450 2C9 (P11712 whole entry): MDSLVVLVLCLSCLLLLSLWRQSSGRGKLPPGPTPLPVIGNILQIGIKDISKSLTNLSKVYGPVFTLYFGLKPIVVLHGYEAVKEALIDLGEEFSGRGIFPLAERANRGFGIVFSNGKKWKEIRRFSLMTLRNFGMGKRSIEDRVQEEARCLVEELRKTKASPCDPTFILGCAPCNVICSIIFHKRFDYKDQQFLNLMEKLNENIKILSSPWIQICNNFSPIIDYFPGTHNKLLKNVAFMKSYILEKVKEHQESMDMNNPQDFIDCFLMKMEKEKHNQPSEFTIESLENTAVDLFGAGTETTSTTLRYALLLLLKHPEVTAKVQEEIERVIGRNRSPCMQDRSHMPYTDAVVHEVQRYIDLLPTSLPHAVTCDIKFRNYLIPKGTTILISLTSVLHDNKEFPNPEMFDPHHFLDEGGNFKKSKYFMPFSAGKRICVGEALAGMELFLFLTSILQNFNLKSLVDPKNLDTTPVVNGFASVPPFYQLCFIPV

TXK = molecular target: T1, TXK (Homo sapiens, UniProt P42681); assay: Inhibition of human full length GST-tagged TXK expressed in baculovirus at 1 uM by Z'-LYTE assay
T1 sequence (P42681 whole entry): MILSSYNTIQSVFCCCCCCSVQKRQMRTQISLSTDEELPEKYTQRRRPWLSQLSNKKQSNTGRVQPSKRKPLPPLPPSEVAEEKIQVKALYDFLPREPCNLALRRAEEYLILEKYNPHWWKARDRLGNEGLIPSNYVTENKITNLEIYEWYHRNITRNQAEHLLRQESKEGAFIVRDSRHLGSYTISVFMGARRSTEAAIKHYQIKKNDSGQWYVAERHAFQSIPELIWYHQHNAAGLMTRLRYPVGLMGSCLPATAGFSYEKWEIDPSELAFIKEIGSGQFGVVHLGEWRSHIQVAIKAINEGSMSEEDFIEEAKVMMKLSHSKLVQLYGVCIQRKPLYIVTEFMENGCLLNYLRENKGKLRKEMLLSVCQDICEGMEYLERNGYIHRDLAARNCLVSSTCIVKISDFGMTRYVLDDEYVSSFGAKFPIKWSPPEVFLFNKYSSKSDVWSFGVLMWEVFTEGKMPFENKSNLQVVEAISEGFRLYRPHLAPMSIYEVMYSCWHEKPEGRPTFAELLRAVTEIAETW

BLK = BLK (Homo sapiens, UniProt P51451); assay: Inhibition of recombinant human full length His-tagged BLK expressed in baculovirus at 1 uM by Z'-LYTE assay
Chain of BLK (P51451 whole entry): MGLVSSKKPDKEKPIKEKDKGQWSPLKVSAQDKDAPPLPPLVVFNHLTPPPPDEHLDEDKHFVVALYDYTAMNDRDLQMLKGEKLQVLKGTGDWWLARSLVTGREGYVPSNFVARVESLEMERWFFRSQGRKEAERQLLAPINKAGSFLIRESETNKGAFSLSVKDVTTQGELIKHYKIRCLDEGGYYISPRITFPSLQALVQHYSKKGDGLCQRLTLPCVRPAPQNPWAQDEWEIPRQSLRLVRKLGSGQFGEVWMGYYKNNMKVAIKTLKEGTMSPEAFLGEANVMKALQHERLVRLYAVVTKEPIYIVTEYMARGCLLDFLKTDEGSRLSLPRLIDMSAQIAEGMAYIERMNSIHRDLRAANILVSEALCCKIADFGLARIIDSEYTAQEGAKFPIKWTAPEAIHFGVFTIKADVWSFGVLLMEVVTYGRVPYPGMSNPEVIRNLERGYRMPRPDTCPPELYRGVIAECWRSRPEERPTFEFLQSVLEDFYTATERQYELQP

EGFR = EGFR (Homo sapiens, UniProt P00533); assay: Inhibition of recombinant human cytoplasmic GST-tagged EGFR expressed in baculovirus at 1 uM by Z'-LYTE assay
Chain of EGFR (P00533 whole entry): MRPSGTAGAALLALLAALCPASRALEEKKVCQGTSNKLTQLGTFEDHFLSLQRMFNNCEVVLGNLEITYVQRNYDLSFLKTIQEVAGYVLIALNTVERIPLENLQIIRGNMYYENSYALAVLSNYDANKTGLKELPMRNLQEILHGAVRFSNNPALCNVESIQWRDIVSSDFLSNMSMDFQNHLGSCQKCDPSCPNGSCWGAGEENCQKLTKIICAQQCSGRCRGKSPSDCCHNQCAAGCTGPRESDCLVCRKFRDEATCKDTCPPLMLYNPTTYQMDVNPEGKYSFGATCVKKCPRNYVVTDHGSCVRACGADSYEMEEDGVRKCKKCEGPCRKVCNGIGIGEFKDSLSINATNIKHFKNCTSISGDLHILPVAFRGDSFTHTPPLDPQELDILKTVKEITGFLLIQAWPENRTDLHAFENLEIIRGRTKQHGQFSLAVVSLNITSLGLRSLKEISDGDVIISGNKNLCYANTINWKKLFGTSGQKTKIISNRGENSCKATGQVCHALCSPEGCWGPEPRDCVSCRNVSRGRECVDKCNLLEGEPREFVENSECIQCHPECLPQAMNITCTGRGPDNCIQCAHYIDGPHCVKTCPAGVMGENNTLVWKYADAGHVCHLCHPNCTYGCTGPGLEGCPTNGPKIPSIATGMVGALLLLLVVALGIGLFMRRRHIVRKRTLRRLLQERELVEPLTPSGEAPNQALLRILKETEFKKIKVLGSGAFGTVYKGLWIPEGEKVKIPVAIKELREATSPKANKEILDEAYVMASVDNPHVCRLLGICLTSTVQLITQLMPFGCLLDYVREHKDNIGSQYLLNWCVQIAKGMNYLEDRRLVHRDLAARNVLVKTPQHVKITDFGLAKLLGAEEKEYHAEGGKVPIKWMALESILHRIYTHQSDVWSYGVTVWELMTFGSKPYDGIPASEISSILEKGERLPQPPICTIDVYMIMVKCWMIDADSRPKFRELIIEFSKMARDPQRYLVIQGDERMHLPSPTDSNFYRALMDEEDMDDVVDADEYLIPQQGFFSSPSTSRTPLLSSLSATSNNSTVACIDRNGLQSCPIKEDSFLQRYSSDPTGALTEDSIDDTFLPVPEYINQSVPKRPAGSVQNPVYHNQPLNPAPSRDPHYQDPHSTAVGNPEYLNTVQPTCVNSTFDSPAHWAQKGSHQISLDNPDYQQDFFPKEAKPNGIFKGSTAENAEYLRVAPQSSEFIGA

LTK = LTK (Homo sapiens, UniProt P29376); assay: Inhibition of recombinant human cytoplasmic GST-tagged LTK expressed in baculovirus at 1 uM by Z'-LYTE assay
Chain of LTK (P29376 whole entry): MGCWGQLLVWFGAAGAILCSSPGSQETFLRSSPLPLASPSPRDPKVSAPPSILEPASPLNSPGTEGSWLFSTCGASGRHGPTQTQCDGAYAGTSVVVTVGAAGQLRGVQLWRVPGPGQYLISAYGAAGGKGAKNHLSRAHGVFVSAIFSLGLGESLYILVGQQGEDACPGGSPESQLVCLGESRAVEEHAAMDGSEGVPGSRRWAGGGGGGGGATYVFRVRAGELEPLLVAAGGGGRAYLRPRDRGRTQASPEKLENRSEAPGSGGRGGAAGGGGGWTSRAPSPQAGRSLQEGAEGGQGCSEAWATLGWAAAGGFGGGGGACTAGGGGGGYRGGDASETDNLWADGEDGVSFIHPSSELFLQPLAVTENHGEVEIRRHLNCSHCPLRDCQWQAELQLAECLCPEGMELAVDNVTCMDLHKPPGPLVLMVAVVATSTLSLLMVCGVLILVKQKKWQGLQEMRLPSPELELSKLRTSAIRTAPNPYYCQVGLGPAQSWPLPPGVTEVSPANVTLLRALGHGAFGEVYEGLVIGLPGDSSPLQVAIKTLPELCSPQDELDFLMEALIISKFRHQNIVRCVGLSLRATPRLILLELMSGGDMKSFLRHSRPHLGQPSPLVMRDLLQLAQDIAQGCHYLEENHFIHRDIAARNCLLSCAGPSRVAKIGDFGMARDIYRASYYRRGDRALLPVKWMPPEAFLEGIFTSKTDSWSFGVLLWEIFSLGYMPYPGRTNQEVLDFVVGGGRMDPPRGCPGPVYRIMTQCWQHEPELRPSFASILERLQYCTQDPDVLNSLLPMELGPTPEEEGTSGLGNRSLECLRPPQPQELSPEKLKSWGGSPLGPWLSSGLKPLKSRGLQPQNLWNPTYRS

ERBB4 = ERBB4 (Homo sapiens, UniProt Q15303); assay: Inhibition of recombinant human cytoplasmic GST-tagged ERBB4 expressed in baculovirus at 1 uM by Z'-LYTE assay
Chain of ERBB4 (Q15303 whole entry): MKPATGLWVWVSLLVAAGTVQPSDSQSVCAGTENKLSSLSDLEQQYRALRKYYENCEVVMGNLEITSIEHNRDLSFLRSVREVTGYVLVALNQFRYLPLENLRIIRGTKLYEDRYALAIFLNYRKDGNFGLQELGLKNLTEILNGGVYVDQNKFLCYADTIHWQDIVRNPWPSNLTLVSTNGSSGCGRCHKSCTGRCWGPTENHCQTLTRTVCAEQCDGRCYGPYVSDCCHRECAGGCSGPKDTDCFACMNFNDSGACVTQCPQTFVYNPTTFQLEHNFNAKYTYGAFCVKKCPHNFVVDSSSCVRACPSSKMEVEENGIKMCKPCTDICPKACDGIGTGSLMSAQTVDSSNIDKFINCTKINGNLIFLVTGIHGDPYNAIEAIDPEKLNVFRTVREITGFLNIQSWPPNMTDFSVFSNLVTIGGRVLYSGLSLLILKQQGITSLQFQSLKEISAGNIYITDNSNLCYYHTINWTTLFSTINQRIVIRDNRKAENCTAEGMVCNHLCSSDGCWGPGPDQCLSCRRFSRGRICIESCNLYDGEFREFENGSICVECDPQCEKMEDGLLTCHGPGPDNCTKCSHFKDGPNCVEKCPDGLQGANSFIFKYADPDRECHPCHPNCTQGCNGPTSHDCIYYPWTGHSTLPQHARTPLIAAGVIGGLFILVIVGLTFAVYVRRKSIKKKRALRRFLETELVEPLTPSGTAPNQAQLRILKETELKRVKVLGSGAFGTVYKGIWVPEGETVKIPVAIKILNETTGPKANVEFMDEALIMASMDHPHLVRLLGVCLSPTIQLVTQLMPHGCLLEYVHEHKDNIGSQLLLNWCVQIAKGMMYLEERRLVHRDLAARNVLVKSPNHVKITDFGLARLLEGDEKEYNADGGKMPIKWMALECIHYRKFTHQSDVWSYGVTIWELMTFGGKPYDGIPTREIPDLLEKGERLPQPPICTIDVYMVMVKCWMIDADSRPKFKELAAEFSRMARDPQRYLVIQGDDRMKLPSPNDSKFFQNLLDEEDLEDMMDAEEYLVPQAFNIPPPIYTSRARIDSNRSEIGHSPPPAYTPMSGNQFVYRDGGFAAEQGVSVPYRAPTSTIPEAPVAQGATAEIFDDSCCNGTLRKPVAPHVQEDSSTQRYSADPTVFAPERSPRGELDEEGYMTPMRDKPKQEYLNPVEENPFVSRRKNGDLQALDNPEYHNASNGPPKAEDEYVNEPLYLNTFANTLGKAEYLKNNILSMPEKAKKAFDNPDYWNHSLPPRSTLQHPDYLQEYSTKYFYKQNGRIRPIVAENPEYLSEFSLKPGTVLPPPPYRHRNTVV

TEC = molecular target: T2, TEC (Homo sapiens, UniProt P42680); assay: Inhibition of recombinant human cytoplasmic full length His-tagged TEC expressed in baculovirus at 1 uM by Z'-LYTE assay
T2 sequence (P42680 whole entry): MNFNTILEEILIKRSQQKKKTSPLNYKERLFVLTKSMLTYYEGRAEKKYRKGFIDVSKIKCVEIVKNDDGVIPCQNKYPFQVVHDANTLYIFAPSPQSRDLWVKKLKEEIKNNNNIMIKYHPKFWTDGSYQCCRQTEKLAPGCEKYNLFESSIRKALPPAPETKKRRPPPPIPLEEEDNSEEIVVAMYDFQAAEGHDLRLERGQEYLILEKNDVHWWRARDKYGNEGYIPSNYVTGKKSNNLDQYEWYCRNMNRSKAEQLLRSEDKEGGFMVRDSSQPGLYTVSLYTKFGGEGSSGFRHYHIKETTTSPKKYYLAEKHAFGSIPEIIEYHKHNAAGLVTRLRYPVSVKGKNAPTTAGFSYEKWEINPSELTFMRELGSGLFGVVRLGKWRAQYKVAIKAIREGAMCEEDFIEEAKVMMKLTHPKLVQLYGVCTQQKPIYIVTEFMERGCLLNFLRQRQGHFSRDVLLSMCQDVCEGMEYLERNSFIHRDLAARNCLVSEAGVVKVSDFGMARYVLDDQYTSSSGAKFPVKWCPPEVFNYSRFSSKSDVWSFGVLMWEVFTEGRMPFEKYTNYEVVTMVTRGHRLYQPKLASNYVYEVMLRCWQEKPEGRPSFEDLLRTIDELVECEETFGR

Rattus norvegicus [4] = assay: Antiinflammatory activity in Lewis rat collagen-induced arthritis model assessed as reduction in ankle diameter AUC at 0.25 mg/kg, po administered qd for 16 days relative to control; format: functional; conditions: 384 h
Rattus norvegicus [5] = assay: Antiinflammatory activity in Lewis rat collagen-induced arthritis model assessed as reduction in ankle diameter AUC at 0.5 mg/kg, po administered bid for 16 days relative to control; format: functional; conditions: 384 h
Rattus norvegicus [6] = assay: Time at which plasma concentration stays above in vitro IC50 for BTK autophosphorylation at Y223 in rat whole blood in Lewis rat collagen-induced arthritis model at 1 to 16 mg/kg, po qd measured during 24 hrs dosing
Rattus norvegicus [7] = assay: Time at which plasma concentration stays above in vitro IC90 for BTK autophosphorylation at Y223 in rat whole blood in Lewis rat collagen-induced arthritis model at 1 to 16 mg/kg, po qd measured during 24 hrs dosing
Rattus norvegicus [8] = assay: Time at which plasma concentration stays above IC90 for BTK autophosphorylation at Y223 in rat whole blood in Lewis rat collagen-induced arthritis model at 0.125 to 2 mg/kg, po bid measured during 12 hrs dosing
Rattus norvegicus [9] = assay: Time at which plasma concentration stays above in vitro IC70 for BTK autophosphorylation at Y223 in rat whole blood in Lewis rat collagen-induced arthritis model at 1 mg/kg, po bid measured during 24 hrs dosing
Rattus norvegicus [10] = assay: Time at which plasma concentration stays above IC70 for BTK autophosphorylation at Y223 in rat whole blood in Lewis rat collagen-induced arthritis model at 0.5 mg/kg, po qd measured during 24 hrs dosing
Rattus norvegicus [11] = assay: Antiinflammatory activity in Lewis rat collagen-induced arthritis model assessed as reduction in ankle pannus at 0.06 to 16 mg/kg, po administered qd for 16 days; format: functional, organism-based
Rattus norvegicus [12] = assay: Antiinflammatory activity in Lewis rat collagen-induced arthritis model assessed as reduction in ankle inflammation at 0.125 to 2 mg/kg, po administered bid for 16 days; format: functional, organism-based
Rattus norvegicus [13] = assay: Antiinflammatory activity in Lewis rat collagen-induced arthritis model assessed as reduction in ankle cartilage damage at 0.125 to 2 mg/kg, po administered bid for 16 days; format: functional, organism-based
physchem = conditions: buffer, pH 7.4

In the case of C[C@H]1CN(C2COC2)CCN1c1ccc(Nc2cc(-c3ccnc(N4CCn5c(cc6c5CC(C)(C)C6)C4=O)c3CO)cn(C)c2=O)nc1 [FENEBRUTINIB], the IC50 (Hepatocyte) is reported as > 300 µM, the Papp A→B [1] is reported as 15.1 ×10⁻⁶ cm/s and the inhibition at 10 µM (Cav1.2) is reported as 3.8%. For the same molecule, the Activity (Salmonella typhimurium [2]) was “Non-Toxic”, the Activity (Salmonella typhimurium [3]) was “Non-Toxic” and the Activity (PBL) was “Non-Toxic”. For the same molecule, the IC50 (Cytochrome P450 1A2) was > 5 µM, the IC50 (Cytochrome P450 2C9) was > 5 µM and the inhibition at 1 µM (TXK) was 4%. For the same molecule, the inhibition at 1 µM (BLK) was 6%, the inhibition at 1 µM (EGFR) was -7% and the inhibition at 1 µM (LTK) was -1%. For the same molecule, the inhibition at 1 µM (ERBB4) was 1%, the inhibition at 1 µM (TEC) was 23% and the inhibition in vivo at 0.25 mg/kg (Rattus norvegicus [4]) was 26%. The inhibition in vivo at 0.5 mg/kg (Rattus norvegicus [5]) was 79%, the Time (Rattus norvegicus [6]) was 12 h and the Time (Rattus norvegicus [7]) was 12 h. It also gave a Time (Rattus norvegicus [8]) of 6 h, a Time (Rattus norvegicus [9]) of 12 h and a Time (Rattus norvegicus [10]) of 12 h. The Activity (Rattus norvegicus [11]) was “Active”, the Activity (Rattus norvegicus [12]) was “Active” and the Activity (Rattus norvegicus [13]) was “Active”. For the same molecule, the logD (physchem) was 1.6.
